# Test results: the supplement of paper PMC9663587
# Assays:
# [1] = compound: T1, CN(C)C(=O)c1cc2cnc(Nc3ccc(N4CCNCC4)cn3)nc2n1C1CCCC1 [LEE011/Ribociclib]; assay: GR value, 72 h; higher = faster growth (1 = untreated, <0 = killing);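 further: breast cancer and non-malignant breast epithelial lines, nine half-log doses, viable cells counted by Hoechst and LIVE/DEAD dye imaging versus time-zero plates and DMSO controls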
# [2] = compound: CCc1cnn2c(NCc3ccc[n+]([O-])c3)cc(N3CCCC[C@H]3CCO)nc12; assay: as above
# [3] = compound: CCN1CCN(Cc2ccc(Nc3ncc(F)c(-c4cc(F)c5nc(C)n(C(C)C)c5c4)n3)nc2)CC1; assay: as above
# [4] = compound: CC(=O)c1c(C)c2cnc(Nc3ccc(N4CCNCC4)cn3)nc2n(C2CCCC2)c1=O; assay: as above
# [5] = compound: CC(=O)c1c(C)c2cnc(Nc3ccc(N4CCN(CCOCCOCCOCCNC(=O)COc5cccc6c5C(=O)N(C5CCC(=O)NC5=O)C6=O)CC4)cn3)nc2n(C2CCCC2)c1=O [BSJ-03-123]; assay: as above
# [6] = compound: CCOc1cc2ncc(C#N)c(Nc3ccc(OCc4ccccn4)c(Cl)c3)c2cc1NC(=O)/C=C/CN(C)C [Neratinib/HKI272]; assay: as above
# [7] = compound: T2, CN1CC[C@H](c2c(O)cc(O)c3c(=O)cc(-c4ccccc4Cl)oc23)[C@H](O)C1 [Flavopiridol]; assay: as above
# [8] = compound: CN(C)C/C=C/C(=O)Nc1ccc(C(=O)Nc2cccc(Nc3ncc(Cl)c(-c4c[nH]c5ccccc45)n3)c2)cc1 [THZ1]; assay: as above
# [9] = compound: T1, LEE011/Ribociclib; assay: increase in dead-cell fraction, 72 h; higher = more death;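 further: breast cancer cell lines in 384-well plates, stained with Hoechst plus LIVE/DEAD far red dye and imaged, cells above an LDR intensity threshold counted dead, Hoechst-negative corpses included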
# [10] = compound: CCN1CCN(Cc2ccc(Nc3ncc(F)c(-c4cc(F)c5nc(C)n(C(C)C)c5c4)n3)nc2)CC1; assay: as above
# [11] = compound: CC(=O)c1c(C)c2cnc(Nc3ccc(N4CCNCC4)cn3)nc2n(C2CCCC2)c1=O; assay: as above
# [12] = compound: T2, Flavopiridol; assay: as above
cell line,measurement,setting,value
EVSAT,GR value,[1]; 0.001 µM,0.968 GR
same,GR value,[1]; 0.003162 µM,0.932 GR
same,GR value,[1]; 0.01 µM,0.956 GR
same,GR value,[1]; 0.03162 µM,0.939 GR
same,GR value,[1]; 0.1 µM,0.901 GR
same,GR value,[1]; 0.3162 µM,0.821 GR
same,GR value,[1]; 1 µM,0.862 GR
same,GR value,[1]; 3.162 µM,0.813 GR
same,GR value,[1]; 10 µM,0.616 GR
same,GR value,[2]; 0.0001 µM,0.951 GR
same,GR value,[2]; 0.0003162 µM,0.967 GR
same,GR value,[2]; 0.001 µM,0.959 GR
same,GR value,[2]; 0.003162 µM,0.994 GR
same,GR value,[2]; 0.01 µM,1.01 GR
same,GR value,[2]; 0.03162 µM,0.299 GR
same,GR value,[3]; 0.001 µM,0.973 GR
same,GR value,[3]; 0.003162 µM,0.947 GR
same,GR value,[3]; 0.01 µM,0.933 GR
same,GR value,[3]; 0.03162 µM,0.853 GR
same,GR value,[3]; 0.1 µM,0.761 GR
same,GR value,[3]; 0.3162 µM,0.679 GR
same,GR value,[3]; 1 µM,0.521 GR
same,GR value,[3]; 3.162 µM,0.393 GR
same,GR value,[3]; 10 µM,-0.545 GR
same,GR value,[4]; 0.0003162 µM,1.02 GR
same,GR value,[4]; 0.001 µM,1 GR
same,GR value,[4]; 0.003162 µM,0.994 GR
same,GR value,[4]; 0.01 µM,0.974 GR
same,GR value,[4]; 0.03162 µM,0.863 GR
same,GR value,[4]; 0.1 µM,0.792 GR
same,GR value,[4]; 0.3162 µM,0.752 GR
same,GR value,[4]; 1 µM,0.671 GR
same,GR value,[4]; 3.162 µM,0.637 GR
same,GR value,[5]; 0.001 µM,0.994 GR
same,GR value,[5]; 0.003162 µM,0.961 GR
same,GR value,[5]; 0.01 µM,0.922 GR
same,GR value,[5]; 0.03162 µM,0.885 GR
same,GR value,[5]; 0.1 µM,0.851 GR
same,GR value,[5]; 0.3162 µM,0.819 GR
same,GR value,[5]; 1 µM,0.724 GR
same,GR value,[5]; 3.162 µM,0.67 GR
same,GR value,[5]; 10 µM,0.0632 GR
same,GR value,[6]; 0.0003162 µM,0.99 GR
same,GR value,[6]; 0.001 µM,1.02 GR
same,GR value,[6]; 0.003162 µM,1.01 GR
same,GR value,[6]; 0.01 µM,0.991 GR
same,GR value,[6]; 0.03162 µM,0.978 GR
same,GR value,[6]; 0.1 µM,0.909 GR
same,GR value,[6]; 0.3162 µM,0.895 GR
same,GR value,[6]; 1 µM,0.822 GR
same,GR value,[6]; 3.162 µM,0.676 GR
same,GR value,[7]; 0.0001 µM,1.01 GR
same,GR value,[7]; 0.0003162 µM,1.06 GR
same,GR value,[7]; 0.001 µM,1.02 GR
same,GR value,[7]; 0.003162 µM,0.984 GR
same,GR value,[7]; 0.01 µM,0.925 GR
same,GR value,[7]; 0.03162 µM,0.97 GR
same,GR value,[7]; 0.1 µM,0.917 GR
same,GR value,[7]; 0.3162 µM,0.619 GR
same,GR value,[7]; 1 µM,-0.514 GR
same,GR value,[8]; 0.0001 µM,1.02 GR
same,GR value,[8]; 0.0003162 µM,0.993 GR
same,GR value,[8]; 0.001 µM,0.991 GR
same,GR value,[8]; 0.003162 µM,0.946 GR
same,GR value,[8]; 0.01 µM,0.975 GR
same,GR value,[8]; 0.03162 µM,0.705 GR
same,GR value,[8]; 0.1 µM,0.232 GR
same,GR value,[8]; 0.3162 µM,-0.363 GR
same,increase in dead-cell fraction,[9]; 0.001 µM,0.0012
same,increase in dead-cell fraction,[9]; 0.003162 µM,0.0024
same,increase in dead-cell fraction,[9]; 0.01 µM,0.0001
same,increase in dead-cell fraction,[9]; 0.03162 µM,0.0046
same,increase in dead-cell fraction,[9]; 0.1 µM,0.0067
same,increase in dead-cell fraction,[9]; 0.3162 µM,0.0048
same,increase in dead-cell fraction,[9]; 1 µM,0.0025
same,increase in dead-cell fraction,[9]; 3.162 µM,0.0016
same,increase in dead-cell fraction,[9]; 10 µM,0.0146
same,increase in dead-cell fraction,[10]; 0.001 µM,-0.0003
same,increase in dead-cell fraction,[10]; 0.003162 µM,-0.0008
same,increase in dead-cell fraction,[10]; 0.01 µM,-0.0013
same,increase in dead-cell fraction,[10]; 0.03162 µM,0.0044
same,increase in dead-cell fraction,[10]; 0.1 µM,0.0048
same,increase in dead-cell fraction,[10]; 0.3162 µM,0.0122
same,increase in dead-cell fraction,[10]; 1 µM,0.0226
same,increase in dead-cell fraction,[10]; 3.162 µM,0.0299
same,increase in dead-cell fraction,[10]; 10 µM,0.798
same,increase in dead-cell fraction,[11]; 0.0003162 µM,0.0003
same,increase in dead-cell fraction,[11]; 0.001 µM,-0.0039
same,increase in dead-cell fraction,[11]; 0.003162 µM,-0.002
same,increase in dead-cell fraction,[11]; 0.01 µM,-0.0026
same,increase in dead-cell fraction,[11]; 0.03162 µM,0.0033
same,increase in dead-cell fraction,[11]; 0.1 µM,0.0048
same,increase in dead-cell fraction,[11]; 0.3162 µM,0.0108
same,increase in dead-cell fraction,[11]; 1 µM,0.0176
same,increase in dead-cell fraction,[11]; 3.162 µM,0.0205
same,increase in dead-cell fraction,[12]; 0.0001 µM,0
same,increase in dead-cell fraction,[12]; 0.0003162 µM,-0.0027
same,increase in dead-cell fraction,[12]; 0.001 µM,-0.0029
same,increase in dead-cell fraction,[12]; 0.003162 µM,0.0039
same,increase in dead-cell fraction,[12]; 0.01 µM,0.0011
same,increase in dead-cell fraction,[12]; 0.03162 µM,0.0016
same,increase in dead-cell fraction,[12]; 0.1 µM,0.0006
same,increase in dead-cell fraction,[12]; 0.3162 µM,0.0111
same,increase in dead-cell fraction,[12]; 1 µM,0.85
